Laboratory results reported in US20180312473A1, “PHENAZINE DERIVATIVES AS ANTIMICROBIAL AGENTS” (priority 2015, published 2018).
≈ marks a conversion by molar mass, not a printed value. Like-named read-outs stand apart in the source and are kept apart here.

Columns and labels:
[1] = system: MRSE (S. epidermidis ATCC 35984) planktonic cells and biofilms; assay: Calgary Biofilm Device (CBD) assay, MBC/MBEC; assay type: cell-based, Staphylococcus epidermidis; conditions: Table 8; for MBC: Staphylococcus epidermidis, read-out: MRSE 35984 MBC
[2] = system: MRSA-2 planktonic cells and biofilms; assay: Calgary Biofilm Device (CBD) assay, MBC/MBEC; assay type: cell-based, Staphylococcus aureus; conditions: Staphylococcus aureus, MRSA
human red blood cells = assay: Hemolysis assay with red blood cells; conditions: 200 μM
Protocol: The hemolysis activities of select compounds of the invention were determined. […] The washing was repeated three times with the buffer. In 96-well plate, test compounds were added to the buffer from DMSO stocks. […] The plate was then incubated for 1 hour at 37° C. After incubation, the plate was centrifuged for 5 minutes at 3,500 rpm. Then 80 μL of the supernatant was transferred to another 96-well plate, and the optical density (OD) was read at 405 nm. DMSO served as the negative control (0% hemolysis), while Triton X served as the positive control (100% hemolysis). The percent of hemolysis was calculated as (OD405 of the compound−OD405 of DMSO)/(OD405 of Triton X−OD405 of the buffer).
The washing was repeated three times with the buffer. In 96-well plate, test compounds were added to the buffer from DMSO stocks. […] The plate was then incubated for 1 hour at 37° C. After incubation, the plate was centrifuged for 5 minutes at 3,500 rpm. Then 80 μL of the supernatant was transferred to another 96-well plate and the optical density (OD) was read at 405 nm. DMSO served as our negative control (0% hemolysis) while Triton X served as our positive control (100% hemolysis). The percent of hemolysis was calculated as (OD405 of the test compound−OD405 DMSO)/(OD405 Triton X−OD405 buffer) from three independent experiments.

E. faecium 700221 (VRE) = assay: MIC assay with Tiron or metal(II) cation co-treatment; assay type: cell-based, Enterococcus faecium
MRSA-2 = assay: as above; assay type: cell-based, Staphylococcus aureus
S. epidermidis 12228 = assay: as above; assay type: cell-based, Staphylococcus epidermidis
[3] = system: MRSA-2 (methicillin-resistant Staphylococcus aureus clinical isolate); assay: MIC assay (broth microdilution, CLSI); assay type: cell-based; conditions: Staphylococcus aureus, MRSA, Table 7; a midpoint of 2-fold range; b lowest concentration tested; read-out: MIC, MRSA-2
[4] = system: Staphylococcus epidermidis (ATCC 12228); assay: MIC assay (broth microdilution, CLSI); assay type: cell-based; conditions: Staphylococcus epidermidis, ATCC12228; Table 7; b lowest concentration tested; read-out: MIC, S. epidermidis 12228
[5] = system: Enterococcus faecium (ATCC 700221), VRE; assay: MIC assay (broth microdilution, CLSI); assay type: cell-based; conditions: Table 7; b lowest concentration tested; read-out: MIC, VRE 700221
[6] = system: VRE (E. faecium ATCC 700221) planktonic cells and biofilms; assay: Calgary Biofilm Device (CBD) assay, MBC/MBEC; assay type: cell-based, Enterococcus faecium; conditions: Enterococcus; Table 8; c lowest concentration tested; read-out: VRE 700221 MBC
[7] = system: M. tuberculosis H37Ra (ATCC 25177); assay: Mycobacterium tuberculosis MIC assay; assay type: cell-based; conditions: Mycobacterium tuberculosis
Protocol: (§1) The culture was then diluted with fresh medium until an OD600 of 0.01 was reached. […] The final DMSO concentration was maintained at 0.5%. […] Three rows were reserved for each compound. […] OD600 absorbance was recorded using SPECTRAMAX M5 (Molecular Devices). Data obtained from three independent experiments were analyzed using Excel.
as §1, with “EXCEL.” for “Excel.”

[8] = Table 8, a/b 2-/4-fold range in independent experiments, read-out: MRSA-2 MBC
[9] = E. faecium 700221, + loss, − increase of activity
[10] = MRSA-2, + loss, − increase of activity
[11] = S. epidermidis 12228, + loss, − increase of activity

## N#CC(C#N)=NNc1cccc(Cl)c1 [CCCP, carbonyl cyanide m-chlorophenyl hydrazone, reference compound]
[1]
  MBC: 31.3 µM (≈ 6.4 µg/mL)
[2]; Table 5, a/b midpoint of 2-/4-fold range, read-out: MRSA-2 MBC
  MBC: 31.3 µM (≈ 6.4 µg/mL)
[2]; [8]
  MBC: 31.3 µM (≈ 6.4 µg/mL)
Human red blood cells; red blood cells
  % Hemolysis at 200 μM: 3.5%
Human red blood cells; Table 8, human red blood cells
  % Hemolysis at 200 μM: 3.5%

## O=C(O)c1cn(C2CC2)c2cc(N3CCNCC3)c(F)cc2c1=O [Ciprofloxacin, ciprofloxacin, reference compound]
Human red blood cells; 1 h, 37 °C
  % Hemolysis (200 μM): 1.8%

## Oc1cccc2cccnc12 [Compound 8-HQ, 8-hydroxyquinoline, reference compound]
E. faecium 700221 (VRE)
  MIC: 18.8 µM
E. faecium 700221 (VRE); [9]
  Fold Δ (Cu^2+): n.a. (insignificant changes in MIC values (≤2-fold changes))
  Fold Δ (Tiron): >+12
E. faecium 700221 (VRE); Enterococcus faecium, VRE
  MIC: 18.8 µM
E. faecium 700221 (VRE); Enterococcus faecium, VRE, read-out: MIC with Cu^2+
  MIC: 18.8 µM
E. faecium 700221 (VRE); Enterococcus faecium, VRE, read-out: MIC with Tiron
  MIC: > 100 µM
E. faecium 700221 (VRE); VRE 700221, + loss, − increase of activity
  Fold Δ (MIC with Tiron vs MIC): >+12
E. faecium 700221 (VRE); read-out: MIC with Tiron
  MIC: > 100 µM
MRSA-2; MRSA-2
  effect of tiron co-treatment on antibacterial activity: complete loss of antibacterial activity
MRSA-2; MRSA-2, 1 mM Tiron, read-out: MIC with Tiron
  MIC: >100 µM
MRSA-2; MRSA-2, no additive (Table 9), read-out: MIC
  MIC: 6.25 µM
MRSA-2; [10]
  Fold Δ (Cu^2+): n.a. (insignificant changes in MIC values (<2-fold changes))
  Fold Δ (Fe^2+): n.a. (insignificant changes in MIC values (<2-fold changes))
  Fold Δ (Tiron): +16
MRSA-2; MRSA-2, + loss, − increase of antibacterial activity
  Fold Δ (MIC with Tiron vs MIC): +16
MRSA-2; Staphylococcus aureus, MRSA
  MIC: 6.25 µM
MRSA-2; Staphylococcus aureus, MRSA, read-out: MIC with Cu^2+
  MIC: 3.13 µM
MRSA-2; Staphylococcus aureus, MRSA, read-out: MIC with Fe^2+
  MIC: 6.25 µM
MRSA-2; Staphylococcus aureus, MRSA, read-out: MIC with Tiron
  MIC: > 100 µM
S. epidermidis 12228; S. epidermidis 12228, 1 mM Tiron, read-out: MIC with Tiron
  MIC: >100 µM
S. epidermidis 12228; S. epidermidis 12228, no additive, read-out: MIC
  MIC: 3.13 µM
S. epidermidis 12228; [11]
  Fold Δ (Cu^2+): n.a. (insignificant changes in MIC values (≤2-fold changes))
  Fold Δ (MIC with Tiron vs MIC): >+32
  Fold Δ (Tiron): >+32
S. epidermidis 12228; Staphylococcus epidermidis, 12228
  MIC: 3.13 µM
S. epidermidis 12228; Staphylococcus epidermidis, 12228, read-out: MIC with Cu^2+
  MIC: 3.13 µM
S. epidermidis 12228; Staphylococcus epidermidis, 12228, read-out: MIC with Tiron
  MIC: > 100 µM

## C=CCc1cc(Br)c2nc3ccccc3nc2c1O [Compound 23, 2-Allyl-4-bromo-1-hydroxyphenazine]
[3]
  MIC: > 100 µM
[4]
  MIC: > 100 µM
[5]
  MIC: > 100 µM

## O=C(O)CN(CCN(CC(=O)O)CC(=O)O)CC(=O)O [EDTA, ethylenediaminetetraacetic acid, reference compound]
[1]
  MBC: 1000 µM (≈ 292 µg/mL)
  MRSE 35984 MBEC: > 2000 µM
Human red blood cells; human, 1 h, pH 7.2
  % Hemolysis at 200 μM: 3.0%

## CC(=O)N[C@@H](CS)C(=O)O [NAC, N-acetyl cysteine, reference compound]
[6]
  MBC: > 2000 µM
[1]
  MBC: > 2000 µM
[2]; Table 4, read-out: MBC, MRSA-2
  MBC: > 2000 µM
[2]; [8]
  MBC: > 2000 µM

## CO[C@H]1/C=C/O[C@@]2(C)Oc3c(C)c(O)c4c(O)c(c(/C=N/N5CCN(C)CC5)c(O)c4c3C2=O)NC(=O)/C(C)=C\C=C\[C@H](C)[C@H](O)[C@@H](C)[C@@H](O)[C@@H](C)[C@H](OC(C)=O)[C@@H]1C [Rifampin, rifampin, reference compound]
[4]
  MIC: 0.1 µM (≈ 0.0823 µg/mL)
Human red blood cells; human, 1 h, pH 7.2
  % Hemolysis (200 μM): 8.0%

## [H]/N=C(/N)N[C@H]1[C@H](O)[C@@H](O)[C@H](O[C@@H]2O[C@@H](C)[C@](O)(C=O)[C@H]2O[C@@H]2O[C@@H](CO)[C@H](O)[C@@H](O)[C@@H]2NC)[C@@H](N/C(N)=N\[H])[C@@H]1O [Streptomycin, streptomycin, reference compound]
[7]; 168 h, read-out: Mtb MIC
  MIC: 1.32 µM (≈ 0.768 µg/mL)
[7]; Table 7, read-out: MIC, M. tuberculosis H37Ra
  MIC: 1.32 µM (≈ 0.768 µg/mL)

## CN(C)[C@@H]1C(O)=C(C(N)=O)C(=O)[C@@]2(O)C(O)=C3C(=O)c4c(O)cccc4[C@@](C)(O)[C@H]3C[C@@H]12 [Tetracyc., tetracycline, reference compound]
MRSA-2; [10]
  Fold Δ (Cu^2+): n.a. (insignificant changes in MIC values (<2-fold changes))
  Fold Δ (Fe^2+): +16
MRSA-2; Staphylococcus aureus, MRSA-2, 200 μM copper(II), read-out: MIC with Cu^2+
  MIC: 1.56 µM
MRSA-2; Staphylococcus aureus, MRSA-2, 200 μM iron(II), read-out: MIC with Fe^2+
  MIC: 18.8 µM
MRSA-2; Staphylococcus aureus, MRSA-2, no additive (Table 9), read-out: MIC
  MIC: 1.17 µM
